Data: patent publication US20140357666A1, “COMPOUNDS FOR INHIBITING THE INTERACTION OF BCL2 WITH BINDING PARTNERS” (NOVARTIS AG, priority 2011, published 2014)
pIC50: −log10 of the molar value.

Key:
[1] = biological target: BCL-2 binding to biotinylated BAK peptide (Homo sapiens, UniProt P10415); assay: SPR (Biacore) solution inhibition assay, BCL-2 binding to BAK peptide surface; conditions: read-out: BCL2_SPR IC50 BAK
Excerpt: (§1) The present method includes utility of a Surface plasmon resonance (SPR)-based biosensor (Biacore™, GE Healthcare, Uppsala, Sweden) to characterize BCL-2 inhibitors.
(§2) Biacore™ utilizes the phenomenon of surface plasmon resonance (SPR) to detect and measure binding interactions. In a typical Biacore experiment, one of the interacting molecules (ligand) is immobilized on a flexible dextran matrix while the interacting partner (analyte) is allowed to flow across that surface. A binding interaction results in an increase in mass on the sensor surface and a corresponding direct change in the refractive index of the medium in the vicinity of the sensor surface. Changes in refractive index or signal are recorded in resonance units (R.U.) Signal changes due to association and dissociation of complexes are monitored in a non-invasive manner, continuously and in real-time, the results of which are reported in the form of a sensorgram.
(§3) The SPR assay is configured to examine solution inhibition of BCL-2 binding to peptide derivatized sensor surfaces to generate IC50 values as a measure of inhibitor potency.
(§4) Biacore™ A100 (GE Healthcare, Uppsala, Sweden) was used to conduct all experiments reported herein. Sensor surface preparation and all interaction analyses experiments were performed at 25° C. Reagents were purchased from GE Healthcare. Running buffer containing 10 mM Hepes, pH7.4, 150 mM sodium chloride, 1.25 mM Dithiothreitol, 3% Dimethyl sulfoxide and 0.05% polysorbate 20 were utilized throughout all analyses.
(§5) Biotinylated BAK, BAD and NOXA peptides were diluted to 10 nM in running buffer and captured onto a sensor surface pre-derivatized with streptavidin (sensor chip SA) to peptide surface densities in the range 50-100 R.U. Peptide captured surfaces were blocked with 500 μM PEO2-Biotin.
(§6) Interaction analyses were performed by first equilibrating each sample within a 6 point three fold compound dilution series in the range 16 μM to […] with 56 nM BCL-2 for one hour during instrument start-up procedures. Protein compound mixtures were then injected over each peptide surface in parallel for 60 seconds at a flow-rate of 30 μL/min. 56 nM BCL-2 control samples were also prepared and run at regular intervals during the assay. Surface regeneration was performed at the end of each analysis cycle by two 30 second injections of 10 mM Glycine, pH 2.5, 1M Sodium Chloride, 0.05% polysorbate 20. Samples and control compound samples were run in duplicate and controls are also run at regular intervals during the assay to monitor surface and assay performance.
(§7) Data analyses are carried out using Biacore™ A100 evaluation software v1.1 to validate assay quality. Binding level report points were used relative to BCL-2 control samples to calculate % inhibition values for each compound protein mixture. […] The range of data shown in table 1 represents the high and low IC50 values obtained from multiple experiments.

[2] = biological target: BCL-2 binding to biotinylated BAD peptide (Homo sapiens, UniProt P10415); assay: SPR (Biacore) solution inhibition assay, BCL-2 binding to BAD peptide surface; conditions: read-out: BCL2_SPR IC50 BAD
Excerpt: as §1, §2, §3, §4, §5, §6, §7

Sequence of BCL-2 binding to biotinylated BAD peptide (P10415 whole entry): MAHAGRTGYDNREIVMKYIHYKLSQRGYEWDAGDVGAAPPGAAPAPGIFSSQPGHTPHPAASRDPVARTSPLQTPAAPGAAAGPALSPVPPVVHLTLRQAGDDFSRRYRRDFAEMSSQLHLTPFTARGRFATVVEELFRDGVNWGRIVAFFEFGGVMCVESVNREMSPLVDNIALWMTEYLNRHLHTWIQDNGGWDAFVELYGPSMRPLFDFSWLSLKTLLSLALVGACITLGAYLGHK
Sequence of BCL-2 binding to biotinylated BAK peptide (P10415 whole entry): as above

Row | SMILES | pIC50 [1] | pIC50 [2]
1 | CCCCN(CCCC)C(=O)c1cc(C)n(-c2ccc(NC(=O)NCc3ccccc3)cc2C(=O)N2Cc3ccccc3C[C@H]2CO)n1 [Example 1, (S)-1-(4-(3-benzylureido)-2-(3-(hydroxymethyl)-1,2,3,4-tetrahydroisoquinoline-2-carbonyl)phenyl)-N,N-dibutyl-5-methyl-1H-pyrazole-3-carboxamide] | 7.27 to 7.34 | 7.18 to 7.28
2 | CCCCN(CCCC)C(=O)c1cc(C)n(-c2ccc(NC(=O)NCC)cc2C(=O)N2Cc3ccccc3C[C@H]2CO)n1 [Example 2] | 6.37 to 6.39 | 6.21 to 6.24
3 | CCCCN(CCCC)C(=O)c1cc(C)n(-c2ccc(NC(=O)Nc3cccc(OC)c3)cc2C(=O)N2Cc3ccccc3C[C@H]2CO)n1 [Example 3] | 6.05 to 6.09 | 5.99 to 6.05
4 | CCCCN(CCCC)C(=O)c1cc(C)n(-c2ccc(NC(=O)N[C@@H](C)c3ccccc3)cc2C(=O)N2Cc3ccccc3C[C@H]2CO)n1 [Example 4] | 7.12 to 7.14 | 7.04 to 7.06
5 | CCCCN(CCCC)C(=O)c1cc(C)n(-c2ccc(NC(=O)NCc3ccccc3OC)cc2C(=O)N2Cc3ccccc3C[C@H]2CO)n1 [Example 5] | 7.11 to 7.14 | 7.11 to 7.14
6 | CCCCN(CCCC)C(=O)c1cc(C)n(-c2ccc(NC(=O)NCc3ccc(OC)cc3)cc2C(=O)N2Cc3ccccc3C[C@H]2CO)n1 [Example 6] | 7.05 to 7.08 | 6.93 to 6.97
7 | CCCCN(CCCC)C(=O)c1cc(C)n(-c2ccc(NC(=O)NCc3ccccc3Cl)cc2C(=O)N2Cc3ccccc3C[C@H]2CO)n1 [Example 7] | 7.03 to 7.06 | 6.97 to 6.99
8 | CCCCN(CCCC)C(=O)c1cc(C)n(-c2ccc(NC(=O)NCc3ccc(Cl)cc3)cc2C(=O)N2Cc3ccccc3C[C@H]2CO)n1 [Example 8] | 6.83 to 6.85 | 6.78 to 6.81
9 | CCCCN(CCCC)C(=O)c1cc(C)n(-c2ccc(NC(=O)N[C@H](C)c3ccccc3)cc2C(=O)N2Cc3ccccc3C[C@H]2CO)n1 [Example 9] | 6.56 to 6.60 | 6.45 to 6.48
10 | CCCCN(CCCC)C(=O)c1cc(C)n(-c2ccc(NC(=O)Nc3ccc(C)c(C)c3)cc2C(=O)N2Cc3ccccc3C[C@H]2CO)n1 [Example 10] | 6.19 to 6.20 | 6.11 to 6.14
11 | CCCCN(CCCC)C(=O)c1cc(C)n(-c2ccc(NC(=O)Nc3ccc(F)c(C(F)(F)F)c3)cc2C(=O)N2Cc3ccccc3C[C@H]2CO)n1 [Example 11] | 5.56 to 5.57 | 5.49 to 5.52
12 | CCCCN(CCCC)C(=O)c1cc(C)n(-c2ccc(NC(=O)Nc3ccccc3Oc3ccccc3)cc2C(=O)N2Cc3ccccc3C[C@H]2CO)n1 [Example 12] | < 4.80 | < 4.80
13 | CCCCN(CCCC)C(=O)c1cc(C)n(-c2ccc(NC(=O)N[C@@H]3C[C@H]3c3ccccc3)cc2C(=O)N2Cc3ccccc3C[C@H]2CO)n1 [Example 13] | 5.04 to 5.06 | < 4.80
14 | CCCCN(CCCC)C(=O)c1cc(C)n(-c2ccc(NC(=O)NC(C)C)cc2C(=O)N2Cc3ccccc3C[C@H]2CO)n1 [Example 14] | 6.45 to 6.46 | 6.29 to 6.31
15 | CCCCN(CCCC)C(=O)c1cc(C)n(-c2ccc(NC(=O)NCCc3ccccc3)cc2C(=O)N2Cc3ccccc3C[C@H]2CO)n1 [Example 15] | – | 6.81 to 6.82
16 | CCCCN(CCCC)C(=O)c1cc(C)n(-c2ccc(NC(=O)Nc3ccc(SC)cc3)cc2C(=O)N2Cc3ccccc3C[C@H]2CO)n1 [Example 16] | 6.02 to 6.09 | 6.01 to 6.10
17 | CCCCN(CCCC)C(=O)c1cc(C)n(-c2ccc(NC(=O)NCc3cccc(C)c3)cc2C(=O)N2Cc3ccccc3C[C@H]2CO)n1 [Example 17] | 7.07 | 6.97 to 7.05
18 | CCCCN(CCCC)C(=O)c1cc(C)n(-c2ccc(NC(=O)Nc3ccc(-c4ccccc4)cc3)cc2C(=O)N2Cc3ccccc3C[C@H]2CO)n1 [Example 18] | 5.70 to 5.71 | 5.75 to 5.76
19 | CCCCN(CCCC)C(=O)c1cc(C)n(-c2ccc(NC(=O)N[C@H](C)c3ccc(OC)cc3)cc2C(=O)N2Cc3ccccc3C[C@H]2CO)n1 [Example 19] | 6.07 to 6.13 | 6.09 to 6.14
20 | CCCCN(CCCC)C(=O)c1cc(C)n(-c2ccc(NC(=O)N[C@@H](C)c3ccc(OC)cc3)cc2C(=O)N2Cc3ccccc3C[C@H]2CO)n1 [Example 20] | 7.09 to 7.16 | 7.12 to 7.15

Row | SMILES | pIC50 [1] | pIC50 [2]
21 | CCCCN(CCCC)C(=O)c1cc(C)n(-c2ccc(NC(=O)Nc3ccccc3OC)cc2C(=O)N2Cc3ccccc3C[C@H]2CO)n1 [Example 21] | 5.50 to 5.56 | 5.46 to 5.58
22 | CCCCN(CCCC)C(=O)c1cc(C)n(-c2ccc(NC(=O)Nc3ccc(C#N)cc3)cc2C(=O)N2Cc3ccccc3C[C@H]2CO)n1 [Example 22] | 5.76 to 5.80 | 5.66 to 5.73
23 | CCCCN(CCCC)C(=O)c1cc(C)n(-c2ccc(NC(=O)N[C@@H](C)c3cccc(OC)c3)cc2C(=O)N2Cc3ccccc3C[C@H]2CO)n1 [Example 23] | 7.38 to 7.43 | 7.33 to 7.34
24 | CCCCN(CCCC)C(=O)c1cc(C)n(-c2ccc(NC(=O)Nc3ccc(OC)cc3C)cc2C(=O)N2Cc3ccccc3C[C@H]2CO)n1 [Example 25] | 6.75 to 6.84 | 6.59 to 6.64
25 | CCCCN(CCCC)C(=O)c1cc(C)n(-c2ccc(NC(=O)Nc3cccs3)cc2C(=O)N2Cc3ccccc3C[C@H]2CO)n1 [Example 26] | 5.77 to 5.78 | 5.61 to 5.68
26 | CCCCN(CCCC)C(=O)c1cc(C)n(-c2ccc(NC(=O)Nc3ccc(Cl)cc3C)cc2C(=O)N2Cc3ccccc3C[C@H]2CO)n1 [Example 27] | 6.06 to 6.07 | 6.02 to 6.05
27 | CCCCN(CCCC)C(=O)c1cc(C)n(-c2ccc(NC(=O)Nc3ccccc3OCC)cc2C(=O)N2Cc3ccccc3C[C@H]2CO)n1 [Example 28] | 6.21 to 6.26 | 6.16 to 6.29
28 | CCCCN(CCCC)C(=O)c1cc(C)n(-c2ccc(NC(=O)Nc3ccc4ccccc4c3)cc2C(=O)N2Cc3ccccc3C[C@H]2CO)n1 [Example 29] | 5.61 to 5.74 | 5.59 to 5.61
29 | CCCCN(CCCC)C(=O)c1cc(C)n(-c2ccc(NC(=O)Nc3c(C)cccc3C)cc2C(=O)N2Cc3ccccc3C[C@H]2CO)n1 [Example 30] | 6.69 to 6.72 | 6.62 to 6.68
30 | CCCCN(CCCC)C(=O)c1cc(C)n(-c2ccc(NC(=O)Nc3cccc(Cc4ccccc4)c3)cc2C(=O)N2Cc3ccccc3C[C@H]2CO)n1 [Example 31] | 5.80 to 5.81 | 5.60 to 5.63
31 | CCCCN(CCCC)C(=O)c1cc(C)n(-c2ccc(NC(=O)NC3CCCC3)cc2C(=O)N2Cc3ccccc3C[C@H]2CO)n1 [Example 32] | 6.55 to 6.56 | 6.33 to 6.35
32 | CCCCN(CCCC)C(=O)c1cc(C)n(-c2ccc(NC(=O)Nc3cccc(Cl)c3C)cc2C(=O)N2Cc3ccccc3C[C@H]2CO)n1 [Example 33] | 6.42 to 6.47 | 6.35 to 6.36
33 | CCCCN(CCCC)C(=O)c1cc(C)n(-c2ccc(NC(=O)Nc3c(C)cccc3CC)cc2C(=O)N2Cc3ccccc3C[C@H]2CO)n1 [Example 34] | 6.18 to 6.20 | 6.15 to 6.21
34 | CCCCN(CCCC)C(=O)c1cc(C)n(-c2ccc(NC(=O)Nc3ccc(F)c(F)c3)cc2C(=O)N2Cc3ccccc3C[C@H]2CO)n1 [Example 35] | 5.51 to 5.52 | 5.41 to 5.50
35 | CCCCN(CCCC)C(=O)c1cc(C)n(-c2ccc(NC(=O)Nc3cc(Cl)cc(Cl)c3)cc2C(=O)N2Cc3ccccc3C[C@H]2CO)n1 [Example 36] | < 4.80 | < 4.80
36 | CCCCN(CCCC)C(=O)c1cc(C)n(-c2ccc(NC(=O)Nc3cc(F)cc(F)c3)cc2C(=O)N2Cc3ccccc3C[C@H]2CO)n1 [Example 37] | 5.42 | 5.37 to 5.39
37 | CCCCN(CCCC)C(=O)c1cc(C)n(-c2ccc(NC(=O)Nc3ccc(OC)c(OC)c3)cc2C(=O)N2Cc3ccccc3C[C@H]2CO)n1 [Example 38] | 6.38 to 6.42 | 6.21 to 6.28
38 | CCCCN(CCCC)C(=O)c1cc(C)n(-c2ccc(NC(=O)Nc3ccccc3Cc3ccccc3)cc2C(=O)N2Cc3ccccc3C[C@H]2CO)n1 [Example 39] | 6.17 to 6.18 | 6.07 to 6.12
39 | CCCCN(CCCC)C(=O)c1cc(C)n(-c2ccc(NC(=O)Nc3c(Cl)cccc3Cl)cc2C(=O)N2Cc3ccccc3C[C@H]2CO)n1 [Example 40] | 6.65 to 6.71 | 6.52 to 6.69
40 | CCCCN(CCCC)C(=O)c1cc(C)n(-c2ccc(NC(=O)Nc3ccccc3OC(F)(F)F)cc2C(=O)N2Cc3ccccc3C[C@H]2CO)n1 [Example 41] | 6.01 to 6.05 | 6.01 to 6.03
